According to patent US20050049220A1, “Dosing regimen for Flaviviridae therapy” (priority 2003, published 2005):
Like-named read-outs stand apart in the source and are kept apart here.

What was measured:
HCV = details: cited from earlier work
HCV replicon RNA [1] = assay: 7-day dynamics of HCV RNA levels; assay type: cell-based, hepatitis C virus (HCV); details: for effect on HCV RNA levels: 7-day period, at 96 h EC90 value (IFN 100 IU/ml)
Huh-7 cells = assay: Cellular rRNA levels / cytotoxicity in HCV replicon cells; details: 100 μM; 4 days; HCV replicon transfected Huh-7 cells
From the text: In a typical setting, a compound might reduce both the host RNA polymerase activity and the replicon-encoded polymerase activity. Therefore, quantification of rRNA (or any other host RNA polymerase I product) or beta-actin mRNA (or any other host RNA polymerase II) and comparison with RNA levels of the no-drug control is a relative measurement of the effect of the test compound on host RNA polymerases.
With the availability of both the HCV ΔCt data and the rRNA ΔCt, a specificity parameter can be introduced. This parameter is obtained by subtracting both ΔCt values from each other.
IFN-α-2a and ribavirin were tested over a range of concentrations for their ability to reduce the HCV RNA levels in exponentially growing replicon cells after 4 days of exposure as described (Stuyver, L. et al. “A ribonucleoside analogue that blocks the replication of bovine viral diarrhea and hepatitis C viruses in culture” Antimicrob. Agents Chemother. 2003, 47, 244-254).
Gemcitabine was dissolved in DMSO and added to the culture media of a cellular model system of Huh7 cells harboring self-replicating HCV RNA, at final concentrations ranging from […]. In such experiments, one way to express the antiviral effectiveness of a compound is to subtract the threshold reverse-transcriptase polymerase chain reactions (RT-PCR) cycle of the test compound with the average threshold RT-PCR cycle of the negative control. This value is called DeltaCt (ΔCt or dCt). With the availability of both the HCV ΔCt data and the rRNA ΔCt, a specificity parameter can be introduced. This parameter is obtained by subtracting both ΔCt values from each other.

HCV replicon = HCV replicon assay: HCV RNA by Q-RT-PCR, 4 days exposure; assay type: cell-based, hepatitis C virus (HCV); details: for log reduction at 10 µM: read-out: Corrected HCV RNA log10 reduction at 10 μM; for EC90: read-out: Corrected HCV RNA EC90
Description: Antiviral screening assays can be done in the same media without G418 as follows: in order to keep cells in logarithmic growth phase, seed cells in a 96-well plate at low density, for example 1000 cells per well. Add the test compound immediate after seeding the cells and incubate for a period of 3 to 7 days at 37° C. in an incubator. Media is then removed, and the cells are prepared for total nucleic acid extraction (including replicon RNA and host RNA). Replicon RNA can then be amplified in a Q-RT-PCR protocol, and quantified accordingly. […] This value is called DeltaCt (ΔCt or DCt).
This value is called DeltaCt (ΔCt or dCt).

HCV replicon RNA [2] = assay: Replicon RNA copy number per cell; assay type: cell-based, hepatitis C virus (HCV); details: for change in replicon RNA copy number per cell (words): 7-day period, treated versus no-treatment controls
Description: FIG. 4 is a graphical depiction of the log10 changes for replicon RNA levels per cell. The plots were obtained from data collected in FIGS. 2 and 3, in which log10 changes for cell count and replicon RNA levels were subtracted from each other. A. Control antiviral compounds. ●: no drug control; ▾: IFN-α-2a at 100 IU/ml; ▪: ribavirin at 100 μM. B. Selection of the most important anti-metabolites. ●: no drug control; ▾: dFdC at 50 nM; ▪: CP-C at 25 μM; ♦: CPE-C at 2.5 μM; ▴: PALA at 10 μM; ●: PZF at 5 μM.
To express the specificity of the antiviral action of the control compounds versus the anti-metabolites, the log10 change in replicon RNA copy number per cell and per day was calculated from the above experiments.

[3] = test system: HCV replicon cells (Huh-7); assay: 7-day cell growth dynamics, trypan-blue cell count; details: for effect on cell proliferation: 7-day period, at 96 h EC90 value (ribavirin 100 μM, IFN 100 IU/ml)
Description: FIG. 2 is a graphical depiction of the dynamics of cell growth and HCV RNA levels after exposure to control anti-HCV compounds. HCV replicon cells were seeded at approximately 10^4 cells per well in a 24-well plate. Over a 7-day period, cells were counted daily, and rRNA and HCV RNA were quantified by Q-RT-PCR. A: IFN-α-2a at 100 IU/ml; B: ribavirin at 100 μM. ●: cell proliferation in absence of compound; ◯: cell proliferation in presence of compound; ▾: HCV RNA levels in untreated cells; ∇: HCV RNA levels in the presence of compound. The curves shown are averages of 3 independent experiments.
Therefore, experiments were conducted to monitor HCV RNA levels and the cell growth dynamics over a 7-day period.
The dynamics of HCV replicon cells exposed to these inhibitors (at their EC90 value) was monitored over a 7-day period.

HCV replicon cells = assay: Prevention studies with natural ribo- or 2′-deoxy nucleosides; assay type: cell-based, human; details: test compound at 96 h EC90 value; nucleosides at 50 μM
[4] = Hepatitis C virus, 96 h, 100 μM, 4 days, HCV replicon transfected Huh-7 cells, read-out: log10 RNA reduction at 100 μM, HCV

NC(=O)c1ncn([C@@H]2O[C@H](CO)[C@@H](O)[C@H]2O)n1 [Ribavirin, 1-β-D-ribofuranosyl-1-1,2,4-triazole-3-carboxamide]
effect on serum levels of HCV-RNA (HCV; HCV patients): does not lower
patients with serum amino transferase levels reduced to normal (HCV): 40%
HCV RNA reduction on day 7 compared to untreated controls (HCV replicon RNA [1]; 100 μM): 2.08 log10
log10 RNA reduction at 100 μM, rRNA (Huh-7 cells): 0.91 ± 0.12 log10
log reduction at 10 µM (HCV replicon; Hepatitis C virus, 96 h, 10 μM, corrected for rRNA): 0.16 ± 0.1
log reduction at 100 µM (HCV replicon; [4]): 1.96 ± 0.28
log reduction at 100 µM (HCV replicon; Hepatitis C virus, 96 h, 100 μM, corrected for rRNA, read-out: Corrected HCV RNA log10 reduction at 100 μM): 1.05 ± 0.29
EC90 (HCV replicon; Hepatitis C virus, 96 h incubation): ~100 µM
change in replicon RNA copy number per cell (words) (HCV replicon RNA [2]): only minimally
change in replicon RNA copy number per cell (words) (HCV replicon RNA [2]; listed as ribavirin): changed only marginally
log10 reduction in cell growth at day 7 compared to day 0 ([3]; 100 μM): 0.22±0.1 log10
log10 reduction in cell growth compared to the no treatment control on day 7 ([3]; 100 μM): 1.53 log10
effect on cell proliferation [3]: completely inhibited cell proliferation
prevention of antiviral and cytostatic effects by natural nucleosides (HCV replicon cells): 2′-deoxyguanosine and guanosine prevented the effects

Cyclopentylcytosine [CP-C]
effect on HCV RNA levels (HCV replicon RNA [1]): reduced HCV-replicon RNA levels
log10 RNA reduction at 100 μM, rRNA (Huh-7 cells): 0.91 ± 0.13 log10
Corrected HCV RNA log10 reduction at 10 μM (HCV replicon; 10 μM, corrected for rRNA): 0.64 ± 0.10 log10
log10 RNA reduction at 100 μM, HCV (HCV replicon; 100 μM, 4 days, HCV replicon transfected Huh-7 cells): 1.97 ± 0.38 log10
Corrected HCV RNA log10 reduction at 100 μM (HCV replicon; 100 μM, corrected for rRNA): 1.06 ± 0.26 log10
EC90 (HCV replicon; 96 h incubation): 25 µM
change in replicon RNA copy number per cell (words) (HCV replicon RNA [2]): profile similar to that seen for IFN-α-2a
effect on cell proliferation [3]: cytostatic effects
prevention of antiviral and cytostatic effects by natural nucleosides (HCV replicon cells): addition of cytidine to the culture medium compensated for the inhibitory effects

NC(=O)c1[nH]nc([C@@H]2O[C@H](CO)[C@@H](O)[C@H]2O)c1O [PZF, pyrazofurin]
effect on HCV RNA levels (HCV replicon RNA [1]): significantly reduced HCV RNA levels
log10 RNA reduction at 100 μM, rRNA (Huh-7 cells): 0.42 ± 0.03 log10
EC90 (HCV replicon; Hepatitis C virus, 96 h): 3.8 µM
log reduction at 10 µM (HCV replicon; Hepatitis C virus, 96 h): 1.16 ± 0.21
log reduction at 100 µM (HCV replicon; Hepatitis C virus, 96 h, read-out: Corrected HCV RNA log10 reduction at 100 μM): 1.46 ± 0.08
log reduction at 100 µM (HCV replicon; [4]): 1.88 ± 0.05
reduction in replicon RNA levels per cell (HCV replicon RNA [2]; 5 μM, after 7 days treatment): 2.96 log10
change in replicon RNA copy number per cell (words) (HCV replicon RNA [2]): time dependent reduction
effect on cell proliferation [3]: reduced cell proliferation only minimally
prevention of antiviral and cytostatic effects by natural nucleosides (HCV replicon cells): prevented by addition of uridine
